Source: US10752609B2, “GSK-3 inhibitors” (priority 2016, dated 2020)

Key:
pTau = pTau assay (no method described); assay type: cell-based
GSK3α = GSK3α (Homo sapiens, UniProt P49840); assay: GSK3α kinase assay (Caliper LabChip3000 mobility shift, fluoresceinated peptide substrate)
GSK3β = GSK3β (Homo sapiens, UniProt P49841); assay: GSK3β kinase assay (Caliper LabChip3000 mobility shift, fluoresceinated peptide substrate); assay type: biochemical; details: 250 pM enzyme, 20 uM ATP, 1.5 uM peptide, 20 hours room temperature; first value of cell GSK3β/GSK3α; read-out: GSK3β (nM), IC50
GSK3β, sequence (P49841 whole entry, species assumed): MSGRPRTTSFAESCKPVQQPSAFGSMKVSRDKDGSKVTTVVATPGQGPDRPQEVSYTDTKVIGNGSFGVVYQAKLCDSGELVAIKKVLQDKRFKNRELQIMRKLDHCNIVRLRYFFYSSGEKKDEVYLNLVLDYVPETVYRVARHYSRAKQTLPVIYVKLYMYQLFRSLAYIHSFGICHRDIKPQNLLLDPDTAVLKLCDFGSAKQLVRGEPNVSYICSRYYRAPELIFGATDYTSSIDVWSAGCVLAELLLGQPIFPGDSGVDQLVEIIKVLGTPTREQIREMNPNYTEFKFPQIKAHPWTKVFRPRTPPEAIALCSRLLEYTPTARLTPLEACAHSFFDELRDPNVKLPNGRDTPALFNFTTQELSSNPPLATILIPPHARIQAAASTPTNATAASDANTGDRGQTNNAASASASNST

GSK3α, sequence (P49840 whole entry, species assumed): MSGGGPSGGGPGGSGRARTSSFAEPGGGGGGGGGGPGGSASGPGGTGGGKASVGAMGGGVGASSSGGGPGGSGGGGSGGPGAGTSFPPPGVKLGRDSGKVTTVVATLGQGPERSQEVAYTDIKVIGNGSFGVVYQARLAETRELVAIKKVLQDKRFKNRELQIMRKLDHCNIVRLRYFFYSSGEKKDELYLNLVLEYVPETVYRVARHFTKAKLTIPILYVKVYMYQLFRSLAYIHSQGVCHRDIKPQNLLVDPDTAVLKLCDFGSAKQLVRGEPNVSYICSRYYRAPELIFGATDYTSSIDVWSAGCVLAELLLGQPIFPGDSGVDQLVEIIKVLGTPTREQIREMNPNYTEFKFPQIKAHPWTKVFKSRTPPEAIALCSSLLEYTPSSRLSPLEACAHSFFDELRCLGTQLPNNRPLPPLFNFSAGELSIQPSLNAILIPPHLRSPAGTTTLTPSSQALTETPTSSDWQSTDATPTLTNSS

Row | SMILES | IC50 (pTau) [nM] | IC50 (GSK3α) [nM] | IC50 (GSK3β) [nM]
1 | CN(C)c1ccc(Nc2nccc(C(=O)Nc3cnccc3-c3ccccc3)n2)cn1 [Example 93, 2-((6-(Dimethylamino)pyridin-3-yl)amino)-N-(4-phenylpyridin-3-yl)pyrimidine-4-carboxamide] | 390 | 3.1 | 4.3
2 | O=C(Nc1cnccc1-c1ccccc1)c1ccnc(NC2CCCOC2)n1 (stereo not drawn) [Example 94, N-(4-Phenylpyridin-3-yl)-2-((tetrahydro-2H-pyran-3-yl)amino)pyrimidine-4-carboxamide] | 210 | 3.5 | 5.1
3 | Cc1cc(Nc2nccc(C(=O)Nc3cnccc3-c3ccccc3)n2)sn1 [Example 95, 2-((3-Methylisothiazol-5-yl)amino)-N-(4-phenylpyridin-3-yl)pyrimidine-4-carboxamide] | 78 | 0.7 | 5.7
4 | CN(C)CCOc1ccc(Nc2nccc(C(=O)Nc3cnccc3-c3ccccc3)n2)cn1 [Example 96, 2-((6-(2-(Dimethylamino)ethoxy)pyridin-3-yl)amino)-N-(4-phenylpyridin-3-yl)pyrimidine-4-carboxamide] | 900 | 11 | 18
5 | Cn1nc(C2CC2)cc1Nc1nccc(C(=O)Nc2cnccc2-c2ccccc2)n1 [Example 97, 2-((3-Cyclopropyl-1-methyl-1H-pyrazol-5-yl)amino)-N-(4-phenylpyridin-3-yl)pyrimidine-4-carboxamide] | 870 | 30 | 29
6 | Cn1ccc(Nc2nccc(C(=O)Nc3cnccc3-c3ccccc3)n2)n1 [Example 98, 2-((1-Methyl-1H-pyrazol-3-yl)amino)-N-(4-phenylpyridin-3-yl)pyrimidine-4-carboxamide] | 2600 | 37 | 46
7 | Cn1cc(Nc2nccc(C(=O)Nc3cnccc3-c3ccccc3)n2)nn1 [Example 99, 2-((1-Methyl-1H-1,2,3-triazol-4-yl)amino)-N-(4-phenylpyridin-3-yl)pyrimidine-4-carboxamide] | 10000 | 190 | 78
8 | CC(C)CNc1ccc(Nc2nccc(C(=O)Nc3cnccc3-c3ccccc3)n2)cn1 [Example 100, 2-((6-(Isobutylamino)pyridin-3-yl)amino)-N-(4-phenylpyridin-3-yl)pyrimidine-4-carboxamide] | 10000 | 65 | 93
9 | O=C(Nc1cnccc1-c1ccccc1)c1ccnc(Nc2cnns2)n1 [Example 101, 2-((1,2,3-Thiadiazol-5-yl)amino)-N-(4-phenylpyridin-3-yl)pyrimidine-4-carboxamide] | 9000 | 42 | 100
10 | Cn1cnc(Nc2nccc(C(=O)Nc3cnccc3-c3ccccc3)n2)c1 [Example 102, 2-((1-Methyl-1H-imidazol-4-yl)amino)-N-(4-phenylpyridin-3-yl)pyrimidine-4-carboxamide] | 10000 | 170 | 260
11 | Cc1ccc(Nc2nccc(C(=O)Nc3cncc(-c4ccccc4F)c3)n2)cn1 [Example 103, N-(5-(2-Fluorophenyl)pyridin-3-yl)-2-((6-methylpyridin-3-yl)amino)pyrimidine-4-carboxamide] | 510 | 1.3 | 3.1
12 | O=C(Nc1cncc(-c2ccccc2F)c1)c1ccnc(Nc2ccc(F)nc2)n1 [Example 104, N-(5-(2-Fluorophenyl)pyridin-3-yl)-2-((6-fluoropyridin-3-yl)amino)pyrimidine-4-carboxamide] | 660 | 2.1 | 4.8
13 | O=C(Nc1cncc(-c2ccccc2F)c1)c1ccnc(Nc2ccc(OC(F)F)nc2)n1 [Example 105, 2-((6-(Difluoromethoxy)pyridin-3-yl)amino)-N-(5-(2-fluorophenyl)pyridin-3-yl)pyrimidine-4-carboxamide] | 2100 | 15 | 31
